Consider five compounds from patent publication US7160729B2, “Method for detecting diseases that are associated with defects of cystic fibrosis transmembrane conductance regulator (CFTR) protein” (priority 2002, dated 2007).

Data set [1] concerns blood cells (reticulocytes and young erythrocytes); CFTR dependent ATP release. In words: Hemolysis test of blood cells in 155 mM KCl medium with Gd3+ blockade of CFTR dependent volume regulation. In kind it is cell-based, human. From the text: A non-defective cell is able to control and regulate its cell volume by interlinking mechanisms during the influx and the efflux of ions and water under physiological conditions. In non-defective blood cells, after application of a 155 mm potassium chloride medium chloride flows into the cell, inter alia through the CFTR. In one embodiment, the invention is based on the idea to inhibit the regulatory volume decrease (RVD) by influencing—for example by blockade—the CFTR-dependent ATP-transporting channels expressed in the cytomembrane. […] This is especially the case with CF blood cells, which due to the CFTR defect have no influx of chloride ions and whose RVD is independent of CFTR. Therefore, no positive pressure can build up in the cell; the blood cells with defective ion channels, especially the blood cells of CF patients undergo no lysis.
In patients suffering from mucoviscidosis with a homozygous ΔF508 mutation, the CFTR is not in the cytomembrane. With heterozygous mutations and other mutations than ΔF508, small quantities of functional CFTR can be in the membrane that transport chloride and are involved in volume regulation. The quantity of the functional CFTR molecules in the cytomembrane is inversely proportional to the severity of the illness. […] The contribution of the CFTR dependent RVD to the entire RVD is proportional to the quantity of the functional CFTR molecules within the membrane. […] Because the quantity of the functional CFTR molecules in the cytomembrane is inversely proportional to the severity of the illness in mucoviscodosis patients, the degree of the hemolysis after blockade of the CFTR dependent RVD is a measurement for the severity of the illness.
In accordance with the invention, first blood cells are extracted from whole blood by centrifugation. […] This solution is incubated for 60 min under agitation at 37° C. and afterwards the released hemoglobin in the solution is determined. […] The hemolysis is determined by visual examination and is quantified by absorption measurement with a wave length of 546 nm. […]

Data set [2] deals with Calu-3 cells (human respiratory tract epithelium cell line). Put plainly: Patch-clamp, whole-cell configuration. In kind it is cell-based. The settings on record: Calu-3, whole-cell, -90 to +10 mV. As to the method:
During the experimental development of the test, it is shown that the observed reaction of the red blood cells can not be explained by the mechanisms known in the literature. The blood cell reactions are only explainable by the existence of a channel proteins, which is not yet known in literature.
In the whole-cell-configuration of the patch-clamp technology, the transmembrane current of a cell is measured with a pre-determined potential. The endocellular potential was maintained for 0.5 seconds in each case at values between −90 to +10 mV and increased in 10 mV intervals (8.d). The currents arising in a cell with this voltage range are presented in 8a–8c. In 8a, the base current of an untreated cell is shown (control). Through treatment with sDIDS, the conductivity of the cytomembrane of this cell increases together with the current (8b). After sDIDS was removed from the experiment (post control), the conductivity of the cytomembrane of this cell decreases, together with the current (8c). In 8e, the current is plotted against the applied potential, so that the slope of the curve is a measurement of the conductivity.
(The patch-clamp technique gives a direct electrical read-out from membranes.)

The subject of data set [3] is blood cells; CFTR dependent ion channels (SDAC). Put plainly: Hemolysis test of blood cells in 155 mM KCl medium with sDIDS activation of CFTR dependent ion channels. The format is cell-based, human. From the text: This embodiment of the invention is based on the idea of evoking a lysis of the non-defective blood cells through activation of certain ion channels of the non-defective blood cells, where through anions flow into the non defective cell, for example: Iodide (I—), bromide (Br—), chloride (Cl—), fluoride (F—), gluconate (dextronic acid-anion), rhodanate (SCN—), and taurine. In defective blood cells these CFTR dependent ion channels don't exist or are not activatable. […] Then no positive pressure can build up in the cell; the blood cells with defective CFTR, especially the blood cells of CF Patients are not subject to lysis.
Since this CFTR dependent ion channel in non-defective blood cells allows the passage of anions such as for example: iodide, bromide, chloride, fluoride, gluconate and rhodanate as well as taurine, the differentiation between defective and non-defective blood cells can also take place in 155 mm solutions that contain iodide, bromide, fluoride, gluconate, rhodanate or taurine.
This embodiment is carried out analogously to the example mentioned above, only the blood cells are resuspended in a solution consisting of 155 mM KCl, 10 mM HEPES-Puffer (pH 7.4) and 100 μM sDIDS. This solution is incubated for 60 min under agitation at 37° C. and afterwards the released hemoglobin in the solution is determined.
Through the selected conditions of the preferred embodiment of the method according to the invention, chloride ions flow into non-defective blood cells via the anion channel activated by sDIDS into the blood cell. That leads to the accumulation of chloride ions in the blood cell and the water influx associated ion influx leads the good blood cell to burst. The hemolysis can be detected photometrically. This procedure may also be carried out with 10 mM HEPES-buffered solution (pH 7,4), that contains 155 mM iodide, bromide, fluoride, gluconate, or rhodanate as anions.

For data set [4] the following is noted: aqueous solution, room temperature; cited from earlier work.

“Also recorded” adds a separate entry of the source.

Consider `[Cl][Gd]([Cl])[Cl]` [Gd^3+, gadolinium chloride], for which, in data set [1] (blood of 22 CF patients), the “degree of hemolysis after Gd^3+ application” value is “only a slight increase”. In addition, the “degree of hemolysis after addition of Gd^3+” value in data set [1] (blood of 87 healthy volunteers) and in data set [1] (umbilical cord blood of 59 newborns) was “unambiguous increase” in each case.
Take `Nc1ccc(C=Cc2ccc(N=C=S)cc2S(=O)(=O)O)c(S(=O)(=O)O)c1` [sDIDS, 4-amino-4′-isothiocyanato-stilbene-2,2′-disulfonic acid]: in data set [2], the “conductivity of the cytomembrane / current after removal (post control)” value is given as “decreases”. Further, in data set [2], the “conductivity of the cytomembrane / current during treatment” value is on record as “reversible activatibility of a conductivity; also recorded: increases”. Also, the “activation of anion conductivity (iodide, bromide, chloride, fluoride, gluconate, rhodanate, taurine)” value in data set [3] (blood cells of CF patients) is reported as “no conductivity”. For the same compound, in data set [3] (blood of 48 CF patients), the “degree of hemolysis after sDIDS application” value is “only a slight increase”. Moreover, the “degree of hemolysis after addition of sDIDS” value in data set [3] (blood of 148 healthy volunteers) and in data set [3] (umbilical cord blood of 82 newborns) was “unambiguous increase” throughout.
On to `CC(=O)Nc1ccc(C=Cc2ccc(N=C=S)cc2S(=O)(=O)O)c(S(=O)(=O)O)c1` [SITS, 4-acetamido-4′-isothiocyanato-stilbene-2,2′-disulfonic acid], for which the “time of hydrolysis to 4-amino-4′-isothiocyanatostilbene-2,2′-disulfonic acid” value in data set [4] is on record as “within a week”.
On to `O=S(=O)([O-])c1cc(N=C=S)ccc1C=Cc1ccc(N=C=S)cc1S(=O)(=O)[O-].[Na+].[Na+]` [DIDS, 4,4′-diisothiocyanato-stilbene-2,2′-disulfonic acid, sodium salt], for which, in data set [4], the “time of hydrolysis to 4-amino-4′-isothiocyanatostilbene-2,2′-disulfonic acid” value is listed as “within a week”.
As for `Nc1ccc(CCc2ccc(N=C=S)cc2S(=O)(=O)O)c(S(=O)(=O)[O-])c1.[Na+]` [4-amino-4′isothiocyanato-dihydrostilbene-2,2′-disulfonic acid, Na^+-salt], the “behaviour compared with sDIDS” value in data set [3] was “behaves like sDIDS”.
